From paper PMC7069248 (Chemical Science, 2019)

Assays:
[1] = target: T1, Human pancreatic α-amylase (HPA) (Homo sapiens, UniProt P04746); conditions: relative to M09
T1 sequence (P04746 16-511): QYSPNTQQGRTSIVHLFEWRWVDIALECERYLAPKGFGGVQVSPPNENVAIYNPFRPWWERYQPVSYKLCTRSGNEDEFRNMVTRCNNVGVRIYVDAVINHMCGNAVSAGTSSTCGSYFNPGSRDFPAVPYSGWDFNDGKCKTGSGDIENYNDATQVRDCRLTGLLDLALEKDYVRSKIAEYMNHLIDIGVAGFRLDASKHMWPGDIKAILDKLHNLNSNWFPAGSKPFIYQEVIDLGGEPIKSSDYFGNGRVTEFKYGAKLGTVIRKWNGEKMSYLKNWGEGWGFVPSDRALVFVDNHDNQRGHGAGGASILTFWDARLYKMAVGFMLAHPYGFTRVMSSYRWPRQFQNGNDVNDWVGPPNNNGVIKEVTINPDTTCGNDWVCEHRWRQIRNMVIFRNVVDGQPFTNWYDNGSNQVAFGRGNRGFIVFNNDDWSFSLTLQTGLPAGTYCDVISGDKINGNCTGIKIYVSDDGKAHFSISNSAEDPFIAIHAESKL

[2] = target: Green coffee bean α-galactosidase (Coffea arabica, UniProt Q42656); assay: Specificity analysis of M10: green coffee bean α-galactosidase; format: biochemical; conditions: read-out: M10 IC50; 37 °C, pH 7
Chain of Green coffee bean α-galactosidase (Q42656 16-378): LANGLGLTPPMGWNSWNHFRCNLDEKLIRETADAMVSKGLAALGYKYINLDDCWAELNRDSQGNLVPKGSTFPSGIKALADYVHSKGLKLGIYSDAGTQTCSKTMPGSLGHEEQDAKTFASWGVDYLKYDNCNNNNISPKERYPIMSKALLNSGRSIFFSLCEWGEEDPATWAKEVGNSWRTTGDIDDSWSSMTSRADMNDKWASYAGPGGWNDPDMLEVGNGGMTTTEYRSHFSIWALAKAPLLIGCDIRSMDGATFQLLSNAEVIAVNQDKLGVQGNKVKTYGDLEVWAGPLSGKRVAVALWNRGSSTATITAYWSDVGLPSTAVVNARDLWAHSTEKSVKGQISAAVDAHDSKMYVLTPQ

[3] = target: T2, Agrobacterium β-glucosidase (Agrobacterium sp., UniProt P12614); assay: Specificity analysis of M10: Agrobacterium β-glucosidase; format: biochemical
T2 sequence (P12614 1-459): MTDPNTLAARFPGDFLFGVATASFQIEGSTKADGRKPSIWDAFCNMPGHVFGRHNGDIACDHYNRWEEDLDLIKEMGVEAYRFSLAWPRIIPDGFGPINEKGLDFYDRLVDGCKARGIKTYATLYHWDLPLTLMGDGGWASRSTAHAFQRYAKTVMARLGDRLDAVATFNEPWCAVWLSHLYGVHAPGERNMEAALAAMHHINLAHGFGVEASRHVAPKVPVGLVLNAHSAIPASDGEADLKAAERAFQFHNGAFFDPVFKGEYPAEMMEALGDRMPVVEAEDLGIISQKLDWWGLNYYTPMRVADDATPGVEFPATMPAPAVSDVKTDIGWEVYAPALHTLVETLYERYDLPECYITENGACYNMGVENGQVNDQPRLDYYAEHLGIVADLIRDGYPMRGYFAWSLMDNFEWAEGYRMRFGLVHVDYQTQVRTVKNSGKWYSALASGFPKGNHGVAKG

Jack bean α-mannosidase = target: T3, Jack bean α-mannosidase (Canavalia ensiformis, UniProt C0HJB3); assay: Specificity analysis of M10: Jack bean α-mannosidase; format: biochemical; conditions: read-out: M10 IC50; 37 °C, pH 7
T3 sequence (C0HJB3 1-981): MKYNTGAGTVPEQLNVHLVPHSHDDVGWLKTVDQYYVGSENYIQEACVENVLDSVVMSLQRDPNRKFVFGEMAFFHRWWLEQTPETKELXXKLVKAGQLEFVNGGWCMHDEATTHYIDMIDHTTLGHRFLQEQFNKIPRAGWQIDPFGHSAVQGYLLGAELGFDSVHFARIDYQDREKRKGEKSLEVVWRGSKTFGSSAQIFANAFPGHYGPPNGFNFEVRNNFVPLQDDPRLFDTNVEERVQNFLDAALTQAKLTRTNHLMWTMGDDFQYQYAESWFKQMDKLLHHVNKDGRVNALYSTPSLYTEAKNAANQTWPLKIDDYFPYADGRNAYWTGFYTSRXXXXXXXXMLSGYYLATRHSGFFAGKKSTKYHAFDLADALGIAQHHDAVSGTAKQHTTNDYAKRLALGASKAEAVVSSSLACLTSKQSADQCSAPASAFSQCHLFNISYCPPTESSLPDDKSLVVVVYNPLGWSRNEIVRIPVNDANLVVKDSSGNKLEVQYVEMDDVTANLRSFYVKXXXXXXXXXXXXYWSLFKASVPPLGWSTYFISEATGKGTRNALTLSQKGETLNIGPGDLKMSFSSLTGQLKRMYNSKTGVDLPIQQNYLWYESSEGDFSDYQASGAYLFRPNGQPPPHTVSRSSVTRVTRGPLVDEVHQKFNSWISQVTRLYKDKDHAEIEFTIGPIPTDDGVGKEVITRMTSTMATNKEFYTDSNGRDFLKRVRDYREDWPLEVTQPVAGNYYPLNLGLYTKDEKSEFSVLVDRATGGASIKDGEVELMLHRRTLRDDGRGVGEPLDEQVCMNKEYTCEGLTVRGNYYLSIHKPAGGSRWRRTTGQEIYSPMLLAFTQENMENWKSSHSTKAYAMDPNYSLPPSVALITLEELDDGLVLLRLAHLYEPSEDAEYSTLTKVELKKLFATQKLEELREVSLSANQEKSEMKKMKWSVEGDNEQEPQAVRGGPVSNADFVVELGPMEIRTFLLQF

E. coli β-galactosidase = E. coli β-galactosidase (Escherichia coli, UniProt P00722); assay: Specificity analysis of M10: E. coli β-galactosidase; conditions: read-out: M10 IC50; 37 °C, pH 7, 1.0 mM MgCl2
Chain of E. coli β-galactosidase (P00722 2-1024 limits assumed): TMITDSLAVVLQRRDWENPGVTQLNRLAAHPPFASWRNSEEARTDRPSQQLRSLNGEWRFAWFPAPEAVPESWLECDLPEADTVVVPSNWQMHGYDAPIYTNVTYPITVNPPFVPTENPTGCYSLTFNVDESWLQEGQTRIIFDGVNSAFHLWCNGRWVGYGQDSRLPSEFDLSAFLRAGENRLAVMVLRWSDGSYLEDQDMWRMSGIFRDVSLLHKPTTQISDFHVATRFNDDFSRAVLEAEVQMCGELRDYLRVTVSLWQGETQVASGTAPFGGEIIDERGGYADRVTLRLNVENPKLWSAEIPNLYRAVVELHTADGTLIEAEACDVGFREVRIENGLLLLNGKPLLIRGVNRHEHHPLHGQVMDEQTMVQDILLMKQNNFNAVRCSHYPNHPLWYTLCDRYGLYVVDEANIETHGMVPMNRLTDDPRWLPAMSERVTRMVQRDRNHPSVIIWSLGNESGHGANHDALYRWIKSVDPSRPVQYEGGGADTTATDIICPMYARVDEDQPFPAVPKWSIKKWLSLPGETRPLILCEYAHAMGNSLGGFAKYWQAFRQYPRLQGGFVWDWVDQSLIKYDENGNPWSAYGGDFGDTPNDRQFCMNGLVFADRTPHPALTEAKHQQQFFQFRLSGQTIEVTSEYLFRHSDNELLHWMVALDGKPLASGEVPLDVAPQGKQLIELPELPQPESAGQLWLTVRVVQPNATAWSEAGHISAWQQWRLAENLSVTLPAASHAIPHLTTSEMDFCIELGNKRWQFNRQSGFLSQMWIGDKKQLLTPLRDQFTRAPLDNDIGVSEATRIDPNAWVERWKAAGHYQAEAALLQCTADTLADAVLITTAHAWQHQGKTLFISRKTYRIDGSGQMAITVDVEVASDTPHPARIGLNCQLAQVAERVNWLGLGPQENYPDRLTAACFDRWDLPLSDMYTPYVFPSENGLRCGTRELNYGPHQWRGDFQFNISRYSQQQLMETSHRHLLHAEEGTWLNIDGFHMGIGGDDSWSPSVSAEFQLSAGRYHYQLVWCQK

[4] = target: H. sapiens C-term sucrase-isomaltase (Homo sapiens, UniProt P14410); assay: Specificity analysis: C-term sucrase-isomaltase; format: biochemical; conditions: read-out: M10 IC50; 37 °C, pH 7, PNP α-Glc
Chain of H. sapiens C-term sucrase-isomaltase (P14410 1008-1827 limits assumed): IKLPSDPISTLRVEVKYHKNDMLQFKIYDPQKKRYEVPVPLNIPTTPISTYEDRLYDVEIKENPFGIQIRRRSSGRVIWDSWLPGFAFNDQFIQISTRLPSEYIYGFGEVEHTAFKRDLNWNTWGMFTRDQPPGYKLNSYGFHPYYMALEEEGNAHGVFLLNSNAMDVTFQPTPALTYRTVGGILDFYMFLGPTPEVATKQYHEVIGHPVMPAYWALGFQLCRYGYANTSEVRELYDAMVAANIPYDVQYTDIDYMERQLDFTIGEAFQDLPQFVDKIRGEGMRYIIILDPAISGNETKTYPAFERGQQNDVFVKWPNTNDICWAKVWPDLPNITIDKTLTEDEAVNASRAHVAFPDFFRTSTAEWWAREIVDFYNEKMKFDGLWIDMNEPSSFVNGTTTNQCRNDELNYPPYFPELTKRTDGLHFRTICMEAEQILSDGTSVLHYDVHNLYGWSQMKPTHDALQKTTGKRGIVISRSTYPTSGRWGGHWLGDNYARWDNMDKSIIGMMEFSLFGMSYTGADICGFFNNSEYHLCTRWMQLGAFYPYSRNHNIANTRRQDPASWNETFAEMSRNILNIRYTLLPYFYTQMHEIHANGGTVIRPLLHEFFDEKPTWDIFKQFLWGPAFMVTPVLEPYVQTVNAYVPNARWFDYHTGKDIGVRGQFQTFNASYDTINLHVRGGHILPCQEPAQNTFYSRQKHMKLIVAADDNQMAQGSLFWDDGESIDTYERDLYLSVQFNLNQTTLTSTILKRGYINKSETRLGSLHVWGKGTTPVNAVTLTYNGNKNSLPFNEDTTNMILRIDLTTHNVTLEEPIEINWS

[5] = target: Homo sapiens maltase-glucoamylase (Homo sapiens, UniProt O43451); assay: Specificity analysis of M10: maltase-glucoamylase; format: biochemical; conditions: read-out: M10 IC50; 37 °C, pH 7, PNP α-Glc
[6] = target: T1, Human pancreatic α-amylase (HPA); assay: biochemical

O=C(/C=C/c1ccc(O)c(O)c1)N[C@@H](Cc1ccc(O)cc1)C(=O)NCCCOc1c(-c2ccc(O)c(O)c2)oc2cc(O)cc(O)c2c1=O [M10]
Further contribution to the binding affinity [1]: ~2.5 kcal mol^–1 | IC50 [2]: > 7 µM | IC50 [3]: 35.4 ± 5.7 µM | IC50 (Jack bean α-mannosidase): > 7 µM | IC50 (E. coli β-galactosidase): > 7 µM | IC50 [4]: > 7 µM | IC50 [5]: > 7 µM

O=C(/C=C/c1ccc(O)c(O)c1)NCCCOc1c(-c2ccc(O)c(O)c2)oc2cc(O)cc(O)c2c1=O [M03]
Ki [6]: 110 ± 10 µM

O=C(/C=C/c1ccc(O)c(O)c1)N[C@@H](Cc1ccc(O)c(O)c1)C(=O)NCCCOc1c(-c2ccc(O)c(O)c2)oc2cc(O)cc(O)c2c1=O [M11]
Ki [6]: 0.06 µM | Further contribution to the binding affinity [1]: ~2.5 kcal mol^–1

O=C(/C=C/c1ccc(O)c(O)c1)NCC(=O)NCCCOc1c(-c2ccc(O)c(O)c2)oc2cc(O)cc(O)c2c1=O [M05]
Ki [6]: 60 ± 10 µM
